Results from PubChem BioAssay AID2060900 (Molecular Pharmacology Branch, DTP, NCI, 2025).

The compounds below were run on 521955-158-R2-J5-PDC complex spheroids, viability (assay: Anticancer human tumor 521955-158-R2-J5-PDC patient-derived pancreatic carcinoma cell line growth inhibition [RAS]). Settings: curve of first compound; second compound 0.00316 µM.
Method in brief: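 Multi-cell-type spheroids: tumor cells plus HUVEC endothelial cells and mesenchymal stem cells. RAS-pathway inhibitors were combined with targeted agents, each dosed in half-log steps down from clinical Cmax, or from 10 microM when Cmax was unknown.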
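Note: compound exposure lasted seven days before the viability read.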

| SMILES | IC50 [nM] |
| --- | --- |
| CC(C)n1nc(-c2ccc3oc(N)nc3c2)c2c(N)ncnc21 + C=CC(=O)N1CCN(c2nc(OCC3CCCN3C)nc3c(F)c(-c4nc(N)cc(C)c4C(F)(F)F)c(Cl)cc23)C(C)C1 | 25.5 |
| CC(Nc1ccc2c(c1)OCCn1cc(N3C(=O)OCC3C(F)F)nc1-2)C(N)=O (stereo unspecified) + C=CC(=O)N1CCN(c2nc(OCC3CCCN3C)nc3c(F)c(-c4nc(N)cc(C)c4C(F)(F)F)c(Cl)cc23)C(C)C1 | 1320 |
| C[C@@H](NC(=O)c1ncnc(N)c1Cl)c1ncc(C(=O)Nc2cc(C(F)(F)F)c(Cl)cn2)s1 + C=CC(=O)N1CCN(c2nc(OCC3CCCN3C)nc3c(F)c(-c4nc(N)cc(C)c4C(F)(F)F)c(Cl)cc23)C(C)C1 | > 10000 |

Second part, the compound after the results:

| IC50 [nM] | SMILES |
| --- | --- |
| > 10000 | CC(C)NCC(C(=O)N1CCN(c2ncnc3c2C(C)CC3O)CC1)c1ccc(Cl)cc1 (stereo unspecified) + C=CC(=O)N1CCN(c2nc(OCC3CCCN3C)nc3c(F)c(-c4nc(N)cc(C)c4C(F)(F)F)c(Cl)cc23)C(C)C1 |
| 23 | O=C(c1ccc(F)c(F)c1Nc1ccc(I)cc1F)N1CC(O)([C@@H]2CCCCN2)C1 + C=CC(=O)N1CCN(c2nc(OCC3CCCN3C)nc3c(F)c(-c4nc(N)cc(C)c4C(F)(F)F)c(Cl)cc23)C(C)C1 |

Same assay, conditions: curve of first compound; second compound 0.01 µM

| SMILES | IC50 [nM] |
| --- | --- |
| CC(C)n1nc(-c2ccc3oc(N)nc3c2)c2c(N)ncnc21 + C=CC(=O)N1CCN(c2nc(OCC3CCCN3C)nc3c(F)c(-c4nc(N)cc(C)c4C(F)(F)F)c(Cl)cc23)C(C)C1 | 31.2 |
| CC(Nc1ccc2c(c1)OCCn1cc(N3C(=O)OCC3C(F)F)nc1-2)C(N)=O (stereo unspecified) + C=CC(=O)N1CCN(c2nc(OCC3CCCN3C)nc3c(F)c(-c4nc(N)cc(C)c4C(F)(F)F)c(Cl)cc23)C(C)C1 | 419 |
| C[C@@H](NC(=O)c1ncnc(N)c1Cl)c1ncc(C(=O)Nc2cc(C(F)(F)F)c(Cl)cn2)s1 + C=CC(=O)N1CCN(c2nc(OCC3CCCN3C)nc3c(F)c(-c4nc(N)cc(C)c4C(F)(F)F)c(Cl)cc23)C(C)C1 | > 10000 |

Next, values leading:

| IC50 [nM] | SMILES |
| --- | --- |
| > 10000 | CC(C)NCC(C(=O)N1CCN(c2ncnc3c2C(C)CC3O)CC1)c1ccc(Cl)cc1 (stereo unspecified) + C=CC(=O)N1CCN(c2nc(OCC3CCCN3C)nc3c(F)c(-c4nc(N)cc(C)c4C(F)(F)F)c(Cl)cc23)C(C)C1 |
| 14.2 | O=C(c1ccc(F)c(F)c1Nc1ccc(I)cc1F)N1CC(O)([C@@H]2CCCCN2)C1 + C=CC(=O)N1CCN(c2nc(OCC3CCCN3C)nc3c(F)c(-c4nc(N)cc(C)c4C(F)(F)F)c(Cl)cc23)C(C)C1 |

Same assay, conditions: curve of first compound; second compound 0.0316 µM

| SMILES | IC50 [nM] |
| --- | --- |
| CC(C)n1nc(-c2ccc3oc(N)nc3c2)c2c(N)ncnc21 + C=CC(=O)N1CCN(c2nc(OCC3CCCN3C)nc3c(F)c(-c4nc(N)cc(C)c4C(F)(F)F)c(Cl)cc23)C(C)C1 | 25.7 |
| CC(Nc1ccc2c(c1)OCCn1cc(N3C(=O)OCC3C(F)F)nc1-2)C(N)=O (stereo unspecified) + C=CC(=O)N1CCN(c2nc(OCC3CCCN3C)nc3c(F)c(-c4nc(N)cc(C)c4C(F)(F)F)c(Cl)cc23)C(C)C1 | 634 |
| C[C@@H](NC(=O)c1ncnc(N)c1Cl)c1ncc(C(=O)Nc2cc(C(F)(F)F)c(Cl)cn2)s1 + C=CC(=O)N1CCN(c2nc(OCC3CCCN3C)nc3c(F)c(-c4nc(N)cc(C)c4C(F)(F)F)c(Cl)cc23)C(C)C1 | > 10000 |

Continued, values first:

| IC50 [nM] | SMILES |
| --- | --- |
| > 10000 | CC(C)NCC(C(=O)N1CCN(c2ncnc3c2C(C)CC3O)CC1)c1ccc(Cl)cc1 (stereo unspecified) + C=CC(=O)N1CCN(c2nc(OCC3CCCN3C)nc3c(F)c(-c4nc(N)cc(C)c4C(F)(F)F)c(Cl)cc23)C(C)C1 |
| 37.2 | O=C(c1ccc(F)c(F)c1Nc1ccc(I)cc1F)N1CC(O)([C@@H]2CCCCN2)C1 + C=CC(=O)N1CCN(c2nc(OCC3CCCN3C)nc3c(F)c(-c4nc(N)cc(C)c4C(F)(F)F)c(Cl)cc23)C(C)C1 |

Same assay, conditions: curve of first compound; second compound 0.1 µM

| SMILES | IC50 [nM] |
| --- | --- |
| CC(C)n1nc(-c2ccc3oc(N)nc3c2)c2c(N)ncnc21 + C=CC(=O)N1CCN(c2nc(OCC3CCCN3C)nc3c(F)c(-c4nc(N)cc(C)c4C(F)(F)F)c(Cl)cc23)C(C)C1 | 26.3 |
| CC(Nc1ccc2c(c1)OCCn1cc(N3C(=O)OCC3C(F)F)nc1-2)C(N)=O (stereo unspecified) + C=CC(=O)N1CCN(c2nc(OCC3CCCN3C)nc3c(F)c(-c4nc(N)cc(C)c4C(F)(F)F)c(Cl)cc23)C(C)C1 | 833 |
| C[C@@H](NC(=O)c1ncnc(N)c1Cl)c1ncc(C(=O)Nc2cc(C(F)(F)F)c(Cl)cn2)s1 + C=CC(=O)N1CCN(c2nc(OCC3CCCN3C)nc3c(F)c(-c4nc(N)cc(C)c4C(F)(F)F)c(Cl)cc23)C(C)C1 | > 10000 |

More lines, now with the values ahead:

| IC50 [nM] | SMILES |
| --- | --- |
| > 10000 | CC(C)NCC(C(=O)N1CCN(c2ncnc3c2C(C)CC3O)CC1)c1ccc(Cl)cc1 (stereo unspecified) + C=CC(=O)N1CCN(c2nc(OCC3CCCN3C)nc3c(F)c(-c4nc(N)cc(C)c4C(F)(F)F)c(Cl)cc23)C(C)C1 |
| 40.1 | O=C(c1ccc(F)c(F)c1Nc1ccc(I)cc1F)N1CC(O)([C@@H]2CCCCN2)C1 + C=CC(=O)N1CCN(c2nc(OCC3CCCN3C)nc3c(F)c(-c4nc(N)cc(C)c4C(F)(F)F)c(Cl)cc23)C(C)C1 |

Same assay, conditions: curve of first compound; second compound 0.316 µM

| SMILES | IC50 [nM] |
| --- | --- |
| CC(C)n1nc(-c2ccc3oc(N)nc3c2)c2c(N)ncnc21 + C=CC(=O)N1CCN(c2nc(OCC3CCCN3C)nc3c(F)c(-c4nc(N)cc(C)c4C(F)(F)F)c(Cl)cc23)C(C)C1 | 22.2 |
| CC(Nc1ccc2c(c1)OCCn1cc(N3C(=O)OCC3C(F)F)nc1-2)C(N)=O (stereo unspecified) + C=CC(=O)N1CCN(c2nc(OCC3CCCN3C)nc3c(F)c(-c4nc(N)cc(C)c4C(F)(F)F)c(Cl)cc23)C(C)C1 | 261 |
| C[C@@H](NC(=O)c1ncnc(N)c1Cl)c1ncc(C(=O)Nc2cc(C(F)(F)F)c(Cl)cn2)s1 + C=CC(=O)N1CCN(c2nc(OCC3CCCN3C)nc3c(F)c(-c4nc(N)cc(C)c4C(F)(F)F)c(Cl)cc23)C(C)C1 | > 10000 |

Next, values leading:

| IC50 [nM] | SMILES |
| --- | --- |
| > 10000 | CC(C)NCC(C(=O)N1CCN(c2ncnc3c2C(C)CC3O)CC1)c1ccc(Cl)cc1 (stereo unspecified) + C=CC(=O)N1CCN(c2nc(OCC3CCCN3C)nc3c(F)c(-c4nc(N)cc(C)c4C(F)(F)F)c(Cl)cc23)C(C)C1 |
| 72 | O=C(c1ccc(F)c(F)c1Nc1ccc(I)cc1F)N1CC(O)([C@@H]2CCCCN2)C1 + C=CC(=O)N1CCN(c2nc(OCC3CCCN3C)nc3c(F)c(-c4nc(N)cc(C)c4C(F)(F)F)c(Cl)cc23)C(C)C1 |

Same assay, conditions: curve of first compound; second compound 1 µM

| SMILES | IC50 [nM] |
| --- | --- |
| CC(C)NCC(C(=O)N1CCN(c2ncnc3c2C(C)CC3O)CC1)c1ccc(Cl)cc1 (stereo unspecified) + C=CC(=O)N1CCN(c2nc(OCC3CCCN3C)nc3c(F)c(-c4nc(N)cc(C)c4C(F)(F)F)c(Cl)cc23)C(C)C1 | > 10000 |
